Test results published in PubChem BioAssay AID1259407 (Chemical Carcinogenesis Research Information System (CCRIS), 2018).
The source made the active and inactive calls. How the calls were made is not given here.

Tested on: CCRIS mutagenicity, Ames/micronucleus/aberration tests
Assay: CCRIS mutagenicity studies

| Compound | mutagenic call (Test System: AMES SALMONELLA TYPHIMURIUM, Strain/Indicator: TA98, Metabolic Activation: NONE, Method: HOST-MEDIATED) | mutagenic call (Test System: AMES SALMONELLA TYPHIMURIUM, Strain/Indicator: TA98, Metabolic Activation: NONE, Method: STANDARD PLATE) | mutagenic call (Test System: AMES SALMONELLA TYPHIMURIUM, Strain/Indicator: TA98, Metabolic Activation: RAT, LIVER, S-9, KC500 OR PHENOBARBITAL, Method: LIQUID SUSPENSION) | mutagenic call (Test System: AMES SALMONELLA TYPHIMURIUM, Strain/Indicator: TA100, Metabolic Activation: MICROSOMAL EPOXIDE HYDROLASE, Method: PREINCUBATION) | mutagenic call (Test System: AMES SALMONELLA TYPHIMURIUM, Strain/Indicator: TA100, Metabolic Activation: NONE, Method: HOST-MEDIATED) | mutagenic call (Test System: AMES SALMONELLA TYPHIMURIUM, Strain/Indicator: TA100, Metabolic Activation: NONE, Method: PREINCUBATION) | mutagenic call (Test System: AMES SALMONELLA TYPHIMURIUM, Strain/Indicator: TA100, Metabolic Activation: NONE, Method: STANDARD PLATE) | mutagenic call (Test System: AMES SALMONELLA TYPHIMURIUM, Strain/Indicator: TA100, Metabolic Activation: RAT, LIVER, S-9, KC500 OR PHENOBARBITAL, Method: LIQUID SUSPENSION) | mutagenic call (Test System: AMES SALMONELLA TYPHIMURIUM, Strain/Indicator: TA1537, Metabolic Activation: NONE, Method: STANDARD PLATE) | mutagenic call (Test System: AMES SALMONELLA TYPHIMURIUM, Strain/Indicator: TA1538, Metabolic Activation: NONE, Method: HOST-MEDIATED) | mutagenic call (Test System: AMES SALMONELLA TYPHIMURIUM, Strain/Indicator: TA1538, Metabolic Activation: NONE, Method: STANDARD PLATE) | mutagenic call (Test System: CHINESE HAMSTER V-79, Strain/Indicator: V-79/6-THIOGUANINE, Metabolic Activation: NONE, Method: REPLATING) | mutagenic call (Test System: CHINESE HAMSTER V-79, Strain/Indicator: V-79/6-THIOGUANINE, Metabolic Activation: NONE, Method: STANDARD PLATE) | mutagenic call (Test System: CHINESE HAMSTER V-79, Strain/Indicator: V-79/8-AZAGUANINE, Metabolic Activation: NONE, Method: STANDARD PLATE) | mutagenic call (Test System: CHINESE HAMSTER V-79, Strain/Indicator: V-79/OUABAIN, Metabolic Activation: NONE, Method: STANDARD PLATE) | mutagenic call (Test System: E. COLI, Strain/Indicator: WP2UVRA, Metabolic Activation: NONE, Method: STANDARD PLATE) | mutagenic call (Test System: UDS HUMAN CELLS, Strain/Indicator: THY INCORP (NON-S-PHASE), Metabolic Activation: NONE, Method: LIQUID SCINTILLATION COUNTING) | mutagenic call (Test System: AMES SALMONELLA TYPHIMURIUM, Strain/Indicator: TA98, Metabolic Activation: RAT, LIVER, S-9, NADPH GENERATING SYSTEM, Method: PREINCUBATION) | mutagenic call (Test System: AMES SALMONELLA TYPHIMURIUM, Strain/Indicator: TA98, Metabolic Activation: RAT, LIVER, S-105, PAPS GENERATING SYSTEM, Method: PREINCUBATION) |
| --- | --- | --- | --- | --- | --- | --- | --- | --- | --- | --- | --- | --- | --- | --- | --- | --- | --- | --- | --- |
| c1ccc2c(c1)cc1c3c2ccc2cccc(c23)C2OC12 (centres undefined) | inactive; negative | active; positive | active; positive | active; positive | inactive; negative | active; positive | active; positive | active; positive | active; positive | inactive; negative | active; positive | active; positive | active; positive | active; positive | active; positive | active; positive | active; positive | – | – |
| OCc1c2ccccc2c(CO)c2c1ccc1ccccc12 | – | – | – | – | – | – | – | – | – | – | – | – | – | – | – | – | – | inactive; negative | active; positive |
